Test results published in paper PMC3124071 (Journal of medicinal chemistry, 2011).

Experiments:
[1] = urate-lowering therapy ref 6; cited from earlier work
[2] = molecular target: T1, human uric acid transporter 1 (hURAT1; SLC22A12) (Homo sapiens, UniProt Q96S37); test: 14C-uric acid uptake inhibition in Xenopus oocytes expressing hURAT1; type: cell-based; settings: for 14C-urate transport inhibition (in words): test compound at 50 μM
T1 sequence (Q96S37 1-553): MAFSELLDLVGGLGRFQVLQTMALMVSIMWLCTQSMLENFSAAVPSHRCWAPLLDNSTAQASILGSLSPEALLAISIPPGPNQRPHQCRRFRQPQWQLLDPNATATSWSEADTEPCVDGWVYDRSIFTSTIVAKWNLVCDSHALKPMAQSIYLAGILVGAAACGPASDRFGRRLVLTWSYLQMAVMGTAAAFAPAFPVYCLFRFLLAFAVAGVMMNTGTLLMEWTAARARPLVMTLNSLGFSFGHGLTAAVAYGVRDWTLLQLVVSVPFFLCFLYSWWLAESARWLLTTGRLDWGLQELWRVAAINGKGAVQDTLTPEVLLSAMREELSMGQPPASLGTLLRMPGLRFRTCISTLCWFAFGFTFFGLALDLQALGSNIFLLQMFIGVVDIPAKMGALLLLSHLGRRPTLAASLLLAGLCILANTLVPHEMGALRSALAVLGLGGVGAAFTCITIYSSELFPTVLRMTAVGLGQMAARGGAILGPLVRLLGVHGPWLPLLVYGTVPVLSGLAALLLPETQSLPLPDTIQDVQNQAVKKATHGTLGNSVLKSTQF

[3] = oral; 7 (100 mg/kg) versus 4 (300 mg/day) or 5 (1000 mg/day) ref 22; cited from earlier work

| Compound | IC50 [2] [nM] | 14C-urate transport inhibition (in words) [2] | also measured |
| --- | --- | --- | --- |
| Oc1ncnc2[nH]ncc12 [Compound 3, allopurinol] |  |  | patients able to meet treatment goals [1]: about 40% |
| CCc1oc2cc(OC)c(Br)cc2c1C(=O)c1cc(Br)c(O)c(Br)c1 [Compound 46, (5-bromo-2-ethyl-6-methoxybenzofuran-3-yl)(3,5-dibromo-4-hydroxyphenyl)methanone] | 1650 ± 120 |  | inhibition at 50 µM ([2]; read-out: % Inhibition @ 50 μM): 98.1 ± 0.2% |
| CCc1oc2ccc(OC)cc2c1C(=O)c1ccc(OC)cc1 [Compound 14, (2-ethyl-5-methoxybenzofuran-3-yl)(4-methoxyphenyl)methanone] |  | weak inhibition |  |
| CCc1oc2ccccc2c1C(=O)c1cc(Br)c(O)c(Br)c1 [Compound 7, (3,5-dibromo-4-hydroxyphenyl)(2-ethylbenzofuran-3-yl)methanone] |  |  | physiological effect (lowers urate level) compared with 4 and 5 [3]: greater physiological effect |
| CCc1oc2c(OC)cccc2c1C(=O)c1ccc(OC)cc1 [Compound 19, (2-ethyl-7-methoxybenzofuran-3-yl)(4-methoxyphenyl)methanone] |  | weak inhibition |  |
| CCc1oc2ccccc2c1C(=O)c1ccc(OC)cc1 [Compound 12, (2-ethylbenzofuran-3-yl)(4-methoxyphenyl)methanone] | > 50000 | weak-to-no |  |
